Results: ChEMBL document CHEMBL1148058, “Antibacterial triterpenoid acids from Dillenia papuana” (1994)

Legend:
Assay type in all cases: functional
Bacillus subtilis = assay: Antibacterial activity against Bacillus subtilis ATCC 6633
Escherichia coli = assay: Antibacterial activity against Escherichia coli ATCC 25922
Micrococcus luteus = assay: Antibacterial activity against Micrococcus luteus ATCC 9341

| Compound | MIC (Bacillus subtilis) [µg] | MIC (Escherichia coli) [µg] | MIC (Micrococcus luteus) [µg] |
| --- | --- | --- | --- |
| CC1(C)C(=O)C=C[C@]2(C)[C@H]3CC=C4[C@@H]5C[C@@](C)(C(=O)O)CC[C@]5(C)CC[C@@]4(C)[C@]3(C)CC[C@@H]12 | 1 | 1 | 1 |
| CC1(C)C(=O)[C@H](O)C[C@]2(C)[C@H]3CC=C4[C@@H]5C[C@@](C)(C(=O)O)CC[C@]5(C)CC[C@@]4(C)[C@]3(C)CC[C@@H]12 [DILLENIC ACID A] | 2.4 | 2.4 | 1.2 |

Further lines, results first:

| MIC (Bacillus subtilis) [µg] | MIC (Escherichia coli) [µg] | MIC (Micrococcus luteus) [µg] | Compound |
| --- | --- | --- | --- |
| 0.1 | 0.04 | 0.04 | O=C(N[C@H](CO)[C@H](O)c1ccc([N+](=O)[O-])cc1)C(Cl)Cl [CHLORAMPHENICOL] |
| 2 | 1 | 1 | CC1(C)[C@@H](O)C(=O)C[C@]2(C)[C@H]3CC=C4[C@@H]5C[C@@](C)(C(=O)O)CC[C@]5(C)CC[C@@]4(C)[C@]3(C)CC[C@@H]12 [DILLENIC ACID B] |
| 2 | 5 | 2 | CC1(C)C(=O)C[C@H](O)[C@]2(C)[C@H]3CC=C4[C@@H]5C[C@@](C)(C(=O)O)CC[C@]5(C)CC[C@@]4(C)[C@]3(C)CC[C@@H]12 [DILLENIC ACID C] |
